Laboratory results: patent US8697742B2, “BCRP/ABCG2 inhibitor” (Kabushiki Kaisha Yakult Honsha, priority 2005, dated 2014)
Converted amounts (≈) assume the structure as drawn. Structures can show the parent of a compound that is named as a salt.

Tests used:
A549/SN-38-4 cells = assay: Effect of overcoming SN-38 resistance of BCRP-expressing A549/SN-38-4 cells; type: cell-based, human; details: Homo sapiens, A549, 48 h, concentration for 50% reduction of relative SN-38 resistance value (IC50 A549/SN-38-4 / IC50 A549); 48 hours culture with SN-38; read-out: Effect of overcoming resistance EC50
How it was run: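 A549/SN-38-4 cells and parental A549 cells were seeded at 2×10^3 per well in Ham's F-12 with 10% FBS and precultured overnight at 37 °C. Viable cells were counted colorimetrically with TetraColor ONE after drug culture. A relative resistance value was derived.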

P388/BCRP cells = assay: Effect of overcoming SN-38 resistance of human BCRP gene-transduced P388 cells; type: cell-based, mouse; details: with SN-38, 48 hours, FIG. 1
Description: (§1) Mouse leukemia P388 cells or human BCRP gene-transduced P388 cells (P388/BCRP cells) (see JP-A-2003-063989) were suspended in 10% FBS/RPMI1640 containing 2-mercaptethanol (50 μM), and the resultant suspension was added to a 96-well microplate (1×10^4 cells/50 μL/well). Thereafter, a solution of each of Compounds 1, 14, 21, 31, 39, and 41 of the present invention and SN-38 in 100 FBS/RPNI1640 (25 μL) was added to each of the wells, followed by culturing at 5% CO2 and 37° C. for 48 hours. After completion of culturing, the number of viable cells was counted by use of TetraColor ONE according to the manufacture's instruction manual.

P388 cells = assay: Sensitivity of parental P388 cells to SN-38; type: cell-based, mouse; details: with SN-38, 48 hours, FIG. 1
Description: as §1

K562/MDR cells = assay: Effect on paclitaxel (multidrug) resistance of human MDR1 gene-transduced K562 cells; type: cell-based; details: Homo sapiens; concentration for 50% reduction of relative paclitaxel resistance value; K562/MDR vs K562; 72 hours; read-out: Effect of overcoming resistance EC50
Excerpt: After completion of culturing, the number of viable cells was counted by use of TetraColor ONE according to the manufacture's instruction manual.

K562/BCRP cells = assay: Intracellular accumulation of SN-38 in BCRP-expressing cells; type: cell-based, human; details: compound 500 ng/mL, 37° C. for 30 minutes, FIG. 2
Description: (§2) K562 cells or human BCRP gene-transduced K562 cells (K562/BCRP cells) (see JP-A-2003-063989) were suspended in 10% FBS/RPMI1640 (1 mL) (5×10^6 cells/mL), and SN-38 and each of Compounds 1, 39, and 46 of the present invention (final concentration: 500 ng/mL) were added to the resultant suspension, followed by incubation at 37° C. for 30 minutes. Thereafter, centrifugation was performed (2° C., 1,400×g, 1 min), and the resultant supernatant was removed. Ice-cooled PBS containing 1% BSA was added to the thus-pelletized cells, and the cells were resuspended, followed by centrifugation (2° C., 1,400×g, 1 min) for washing the cells. This washing procedure was performed again, followed by addition of PBS (250 μL) and sonication of the cells. To the resultant cell sonicate, methanol (250 μL) and 10% zinc sulfate solution (10 μL) were added, and the resultant mixture was stirred, followed by centrifugation (2° C., 12, 500×g, 5 min) and collection of the supernatant. The thus-collected supernatant was dispensed in a white 96-well microplate for fluorescence intensity measurement (200 μL/well), and then the amount of SN-38 contained in the supernatant was measured by use of a microplate fluorometer [SPECTRA max GEMINI XS (trademark), product of Molecular Devices] […]

K562 cells = assay: Intracellular accumulation of SN-38 in parental K562 cells; type: cell-based, human; details: compound 500 ng/mL, 37° C. for 30 minutes, FIG. 2
Description: as §2

HCT116 cells = assay: In vivo tumour growth, HCT116 tumour in nude mice; parameters: species or system human; details: solvent + CPT-11 10 mg/kg/day i.v. for seven days (no compound); day 21; parental HCT116
Excerpt: A solvent was solely administered to a control group. On the day 21 from the start of administration, a tumor was extirpated from each mice and weighed, and the tumor growth inhibition ratio IR (%) was derived from the following equation: Tumor growth inhibition ratio IR(%)=(1−average tumor weight of each administration group/average tumor weight of control group)×100.

Row | EC50 (A549/SN-38-4 cells) | EC50 (K562/MDR cells) | Compound | Effect of overcoming the SN-38 resistance of the P388/BCRP cells (P388/BCRP cells) | Effect on sensitivity of the P388 cells to SN-38 (P388 cells) | Amount of accumulation of SN-38 in the K562/BCRP cells (K562/BCRP cells) | Amount of accumulation of SN-38 in the K562 cells (parental cells) (K562 cells) | Tumor weight Mean ± S.D. (HCT116 cells)
1 | 0.037 µg/mL (≈ 0.146 µM) | > 5 µg/mL | COc1ccc(/C(C#N)=C/c2ccc[nH]2)cc1OC [Compound 39, (Z)-2-(3,4-dimethoxy-phenyl)-3-(1H-pyrrol-2-yl)-acrylonitrile] | potent effect of overcoming the SN-38 resistance | did not affect the sensitivity | increased the amount of accumulation of SN-38 | virtually unaffected | –
2 | – | – | CCc1c2c(nc3ccc(OC(=O)N4CCC(N5CCCCC5)CC4)cc13)-c1cc3c(c(=O)n1C2)COC(=O)[C@]3(O)CC [CPT-11, irinotecan hydrochloride] | – | – | – | – | 0.37 ± 0.08 g
3 | 0.006 µg/mL (≈ 0.019 µM) | > 5 µg/mL | COc1ccc(/C(C#N)=C/c2ccc([N+](=O)[O-])s2)cc1OC [Compound 1, (Z)-2-(3,4-dimethoxy-phenyl)-3-(5-nitro-thiophen-2-yl)-acrylonitrile] | potent effect of overcoming the SN-38 resistance | did not affect the sensitivity | increased the amount of accumulation of SN-38 | virtually unaffected | –
